Experimental data: ChEMBL document CHEMBL1201862, “PubChem BioAssay data set” (2004)
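The compound was tested at five concentrations on cells cultured in 96-well plates, with a 48-hour exposure period. Abbreviation: GI50, concentration required for 50% inhibition of growth.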 Active and inactive are the calls of the source. No stated cut-off is given here; in the data, active = GI50 up to about 1.1 µM and inactive = higher.

What was measured:
Assay in all cases: inhibition of tumour cell growth, NCI panel, 48 h
U-251 = tested on: U-251
A549 = tested on: A549
786-0 = tested on: 786-0
Hs-578T = tested on: Hs-578T
BT-549 = tested on: BT-549
ACHN = tested on: ACHN
NCI-H522 = tested on: NCI-H522
HCC 2998 = tested on: HCC 2998
OVCAR-8 = tested on: OVCAR-8
UO-31 = tested on: UO-31
MDA-N = tested on: MDA-N
PC-3 = tested on: PC-3
SN12C = tested on: SN12C
NCI/ADR-RES = tested on: NCI/ADR-RES
MDA-MB-435 = tested on: MDA-MB-435
SF-268 = tested on: SF-268
TK-10 = tested on: TK-10
Malme-3M = tested on: Malme-3M
RXF 393 = tested on: RXF 393
HL-60 = tested on: HL-60
HT-29 = tested on: HT-29
IGROV-1 = tested on: IGROV-1
HOP-92 = tested on: HOP-92
HOP-62 = tested on: HOP-62
MCF7 = tested on: MCF7
UACC-257 = tested on: UACC-257
OVCAR-5 = tested on: OVCAR-5
SNB-75 = tested on: SNB-75
SK-MEL-5 = tested on: SK-MEL-5
MDA-MB-231 = tested on: MDA-MB-231
CAKI-1 = tested on: CAKI-1
HCT-15 = tested on: HCT-15
MOLT-4 = tested on: MOLT-4
NCI-H23 = tested on: NCI-H23
EKVX = tested on: EKVX
OVCAR-4 = tested on: OVCAR-4
DU-145 = tested on: DU-145
SF-295 = tested on: SF-295
CCRF-CEM = tested on: CCRF-CEM
A498 = tested on: A498
SK-MEL-2 = tested on: SK-MEL-2
HCT-116 = tested on: HCT-116
T47D = tested on: T47D
KM12 = tested on: KM12
SR = tested on: SR
K562 = tested on: K562
M14 = tested on: M14
SF-539 = tested on: SF-539
NCI-H226 = tested on: NCI-H226
LOX IMVI = tested on: LOX IMVI
SW-620 = tested on: SW-620
RPMI-8226 = tested on: RPMI-8226
UACC-62 = tested on: UACC-62
SK-MEL-28 = tested on: SK-MEL-28
COLO 205 = tested on: COLO 205
OVCAR-3 = tested on: OVCAR-3
SK-OV-3 = tested on: SK-OV-3
SNB-19 = tested on: SNB-19
NCI-H460 = tested on: NCI-H460

## CCOC(=O)/C=C(/C(=O)OCC)n1cc(C)c(=O)n(Cc2cn(COCCOC(C)=O)nn2)c1=O
U-251
  GI50: 26.3 µM (inactive)
A549
  GI50: > 100 µM (inactive)
786-0
  GI50: 20 µM (inactive)
Hs-578T
  GI50: 26.3 µM (inactive)
BT-549
  GI50: 19.9 µM (inactive)
ACHN
  GI50: 7.06 µM (inactive)
NCI-H522
  GI50: 2.49 µM (inactive)
HCC 2998
  GI50: 17.3 µM (inactive)
OVCAR-8
  GI50: 16.2 µM (inactive)
UO-31
  GI50: 1.07 µM (active)
MDA-N
  GI50: 38.3 µM (inactive)
PC-3
  GI50: 37.3 µM (inactive)
SN12C
  GI50: 25.8 µM (inactive)
NCI/ADR-RES
  GI50: 21 µM (inactive)
MDA-MB-435
  GI50: 18.3 µM (inactive)
SF-268
  GI50: 19.5 µM (inactive)
TK-10
  GI50: 14.2 µM (inactive)
Malme-3M
  GI50: 11 µM (inactive)
RXF 393
  GI50: 23.7 µM (inactive)
HL-60
  GI50: 8.57 µM (inactive)
HT-29
  GI50: 16.1 µM (inactive)
IGROV-1
  GI50: 17.2 µM (inactive)
HOP-92
  GI50: 13.2 µM (inactive)
HOP-62
  GI50: > 100 µM (inactive)
MCF7
  GI50: 16.5 µM (inactive)
UACC-257
  GI50: 20.7 µM (inactive)
OVCAR-5
  GI50: 27.8 µM (inactive)
SNB-75
  GI50: 33.2 µM (inactive)
SK-MEL-5
  GI50: 24.9 µM (inactive)
MDA-MB-231
  GI50: 28.4 µM (inactive)
CAKI-1
  GI50: 9.59 µM (inactive)
HCT-15
  GI50: 20.7 µM
MOLT-4
  GI50: 15 µM (inactive)
NCI-H23
  GI50: 6.18 µM (inactive)
EKVX
  GI50: 16.7 µM (inactive)
OVCAR-4
  GI50: 20 µM (inactive)
DU-145
  GI50: 36.3 µM (inactive)
SF-295
  GI50: > 100 µM (inactive)
CCRF-CEM
  GI50: 0.984 µM (active)
A498
  GI50: 50.5 µM (inactive)
SK-MEL-2
  GI50: 45.8 µM (inactive)
HCT-116
  GI50: 20.7 µM (inactive)
T47D
  GI50: 25.8 µM (inactive)
KM12
  GI50: 23.1 µM (inactive)
SR
  GI50: 20.9 µM (inactive)
K562
  GI50: 7.18 µM (inactive)
M14
  GI50: 46 µM (inactive)
SF-539
  GI50: 15.9 µM (inactive)
NCI-H226
  GI50: 21.1 µM (inactive)
LOX IMVI
  GI50: 22.2 µM (inactive)
SW-620
  GI50: 6.84 µM (inactive)
RPMI-8226
  GI50: 17.9 µM (inactive)
UACC-62
  GI50: 17.1 µM (inactive)
SK-MEL-28
  GI50: 19.8 µM (inactive)
COLO 205
  GI50: 7.82 µM (inactive)
OVCAR-3
  GI50: 24.7 µM (inactive)
SK-OV-3
  GI50: > 100 µM (inactive)
SNB-19
  GI50: > 52.6 µM (inactive)
NCI-H460
  GI50: > 40.6 µM (inactive)

## N#Cc1c(O)c(/C=N/c2ccc(Cl)cc2)c(=O)n2c1[nH]c1ccccc12
U-251
  GI50: > 100 µM (inactive)
A549
  GI50: > 100 µM (inactive)
786-0
  GI50: > 100 µM (inactive)
Hs-578T
  GI50: > 100 µM (inactive)
BT-549
  GI50: > 100 µM (inactive)
ACHN
  GI50: > 100 µM (inactive)
NCI-H522
  GI50: > 100 µM (inactive)
HCC 2998
  GI50: > 100 µM (inactive)
OVCAR-8
  GI50: > 100 µM (inactive)
UO-31
  GI50: > 100 µM (inactive)
MDA-N
  GI50: > 100 µM (inactive)
PC-3
  GI50: > 100 µM (inactive)
SN12C
  GI50: > 100 µM (inactive)
NCI/ADR-RES
  GI50: > 100 µM (inactive)
MDA-MB-435
  GI50: > 100 µM (inactive)
SF-268
  GI50: > 100 µM (inactive)
TK-10
  GI50: > 100 µM (inactive)
Malme-3M
  GI50: > 100 µM (inactive)
RXF 393
  GI50: > 100 µM (inactive)
HL-60
  GI50: > 100 µM (inactive)
HT-29
  GI50: > 100 µM (inactive)
IGROV-1
  GI50: > 100 µM (inactive)
HOP-92
  GI50: > 100 µM (inactive)
HOP-62
  GI50: > 100 µM (inactive)
MCF7
  GI50: > 100 µM (inactive)
UACC-257
  GI50: > 100 µM (inactive)
OVCAR-5
  GI50: > 100 µM (inactive)
SNB-75
  GI50: > 100 µM (inactive)
SK-MEL-5
  GI50: > 100 µM (inactive)
MDA-MB-231
  GI50: > 100 µM (inactive)
CAKI-1
  GI50: > 100 µM (inactive)
HCT-15
  GI50: 36.5 µM
MOLT-4
  GI50: > 100 µM (inactive)
NCI-H23
  GI50: > 100 µM (inactive)
EKVX
  GI50: > 100 µM (inactive)
OVCAR-4
  GI50: > 100 µM (inactive)
DU-145
  GI50: > 100 µM (inactive)
SF-295
  GI50: > 100 µM (inactive)
CCRF-CEM
  GI50: > 100 µM (inactive)
A498
  GI50: > 100 µM (inactive)
SK-MEL-2
  GI50: > 100 µM (inactive)
HCT-116
  GI50: > 100 µM (inactive)
T47D
  GI50: > 100 µM (inactive)
KM12
  GI50: > 100 µM (inactive)
SR
  GI50: > 100 µM (inactive)
K562
  GI50: > 100 µM (inactive)
M14
  GI50: > 100 µM (inactive)
SF-539
  GI50: > 100 µM (inactive)
NCI-H226
  GI50: > 100 µM (inactive)
LOX IMVI
  GI50: > 100 µM (inactive)
SW-620
  GI50: > 100 µM (inactive)
RPMI-8226
  GI50: > 100 µM (inactive)
UACC-62
  GI50: > 100 µM (inactive)
SK-MEL-28
  GI50: > 100 µM (inactive)
COLO 205
  GI50: > 100 µM (inactive)
OVCAR-3
  GI50: > 100 µM (inactive)
SK-OV-3
  GI50: > 100 µM (inactive)
SNB-19
  GI50: > 100 µM (inactive)
NCI-H460
  GI50: > 100 µM (inactive)

## O=C(NC(N1CCN(c2cc3c(cc2F)c(=O)c(C(=O)O)cn3C2CC2)CC1)(C(F)(F)F)C(F)(F)F)c1ccccc1
U-251
  GI50: 37.3 µM (inactive)
A549
  GI50: 39.7 µM (inactive)
786-0
  GI50: 45.2 µM (inactive)
Hs-578T
  GI50: 40.9 µM (inactive)
BT-549
  GI50: 51.2 µM (inactive)
ACHN
  GI50: 35.8 µM (inactive)
NCI-H522
  GI50: 17.7 µM (inactive)
HCC 2998
  GI50: 23.8 µM (inactive)
OVCAR-8
  GI50: 46 µM (inactive)
UO-31
  GI50: 30.5 µM (inactive)
MDA-N
  GI50: 39.6 µM (inactive)
PC-3
  GI50: 45.1 µM (inactive)
SN12C
  GI50: 36.1 µM (inactive)
NCI/ADR-RES
  GI50: 46 µM (inactive)
MDA-MB-435
  GI50: 34.1 µM (inactive)
SF-268
  GI50: 40.9 µM (inactive)
TK-10
  GI50: 27.4 µM (inactive)
Malme-3M
  GI50: 36.6 µM (inactive)
RXF 393
  GI50: 46.1 µM (inactive)
HL-60
  GI50: 25.4 µM (inactive)
HT-29
  GI50: 24.1 µM (inactive)
IGROV-1
  GI50: 36.3 µM (inactive)
HOP-92
  GI50: 33.8 µM (inactive)
HOP-62
  GI50: 38.5 µM (inactive)
MCF7
  GI50: 29.8 µM (inactive)
UACC-257
  GI50: 26.8 µM (inactive)
OVCAR-5
  GI50: 26.7 µM (inactive)
SNB-75
  GI50: 33.6 µM (inactive)
SK-MEL-5
  GI50: 26 µM (inactive)
MDA-MB-231
  GI50: 22.2 µM (inactive)
CAKI-1
  GI50: 22.9 µM (inactive)
HCT-15
  GI50: 22.1 µM
MOLT-4
  GI50: 26.1 µM (inactive)
NCI-H23
  GI50: 25.9 µM (inactive)
EKVX
  GI50: 35.6 µM (inactive)
OVCAR-4
  GI50: 35.2 µM (inactive)
DU-145
  GI50: 62.1 µM (inactive)
SF-295
  GI50: 40.6 µM (inactive)
CCRF-CEM
  GI50: 24.7 µM (inactive)
A498
  GI50: 30.4 µM (inactive)
SK-MEL-2
  GI50: 34.9 µM (inactive)
HCT-116
  GI50: 34.1 µM (inactive)
T47D
  GI50: 35.6 µM (inactive)
KM12
  GI50: 29.2 µM (inactive)
SR
  GI50: 29.8 µM (inactive)
K562
  GI50: 39.4 µM (inactive)
M14
  GI50: 47.4 µM (inactive)
SF-539
  GI50: 22 µM (inactive)
NCI-H226
  GI50: 34.1 µM (inactive)
LOX IMVI
  GI50: 33.9 µM (inactive)
SW-620
  GI50: 40.5 µM (inactive)
RPMI-8226
  GI50: 27.7 µM (inactive)
UACC-62
  GI50: 33.3 µM (inactive)
SK-MEL-28
  GI50: 55.8 µM (inactive)
COLO 205
  GI50: 19.1 µM (inactive)
OVCAR-3
  GI50: 43.5 µM (inactive)
SK-OV-3
  GI50: 34.1 µM (inactive)
SNB-19
  GI50: 33.9 µM (inactive)
NCI-H460
  GI50: 32.1 µM (inactive)
